According to patent US20130102463A1, “Herbicidal Compositions” (BASF SE, priority 2010, published 2013):

Columns and labels:
[1] = test system: fleabane (Erigeron canadiensis, ERICA); test: Example 1: herbicidal action; whole plants sprayed with B, PPO inhibitor applied as local leaf treatment, high light; type: in vivo, Erigeron canadensis
[2] = test system: fleabane (Erigeron canadiensis); test: Example 3: herbicidal action; whole plants sprayed with B, component A applied as local leaf treatment, high light; type: in vivo, Erigeron canadensis; conditions: ERICA
[3] = 5 DAT, rate 1000 g/ha (B alone)
[4] = 11 DAT, rate 1000 g/ha (B alone)

| SMILES | % damage ([2]; 2 DAT, rate 500 g/ha (B alone)) | % damage ([2]; 8 DAT, rate 500 g/ha (B alone)) | further results |
| --- | --- | --- | --- |
| CCCCC(CC)COC(=O)C(C#N)=C(c1ccccc1)c1ccccc1 (stereo not shown) [B.1.2.2, 2-cyano-3,3-diphenylacrylic acid-2′-ethylhexyl ester] | – | – | % damage ([1]; 7 DAT, rate 500 g/ha (B alone)): 10%; % damage ([1]; 11 DAT, rate 500 g/ha (B alone)): 10% |
| Cc1c(C)c2c(c(C)c1O)CC[C@@](C)(CCC[C@H](C)CCC[C@H](C)CCCC(C)C)O2 [B.3.4.1, α-tocopherol] | – | – | % damage ([1]; 5 DAT, rate 7000 g/ha (B alone)): 0%; % damage ([1]; 11 DAT, rate 7000 g/ha (B alone)): 0% |
| CC(C)c1cccc(C(C)C)c1N1C(=O)c2cccc3c(Oc4ccc(C(C)(C)CC(C)(C)C)cc4)ccc(c23)C1=O [B.1.18.1, 2-[2,6-bis(1-methylethyl)phenyl]-6-[4-(1,1,3,3-tetramethylbutyl)phenoxy]-1H-benz[de]isoquinoline-1,3(2H)-dione] | 0% | 0% | – |
| c1ccc(Nc2ccccc2)cc1 [B.3.19.1, diphenylamine] | – | – | % damage [1, 3]: 0%; % damage [1, 4]: 0% |
| COc1cc(O)c(C(=O)c2ccccc2)cc1S(=O)(=O)O [B.1.7.1, 2-hydroxy-4-methoxy-benzophenone-5-sulfonic acid] | 0% | 0% | – |
| CC1=CC(=O)CC(C)(C)[C@@]1(O)/C=C/C(C)=C\C(=O)O [B.3.28.1, abscisic acid] | – | – | % damage [1, 3]: 1%; % damage [1, 4]: 0% |
| CCCCC(CC)COC(=O)c1ccc(Nc2nc(Nc3ccc(C(=O)OCC(CC)CCCC)cc3)nc(Nc3ccc(C(=O)OCC(CC)CCCC)cc3)n2)cc1 (stereo not shown) [B.1.11.1, 2,4,6-trinanilino-p-(carbo-2′-ethyl-hexyl-1′-oxy)-1,3,5-triazine] | 0% | 0% | – |
| CCOC(=O)C(C#N)=C1C=C(NC(C)CC)CC(C)(C)C1 (stereo not shown) [B.1.17.1, 2-cyano-2-[5,5-dimethyl-3-[(1-methylpropyl)amino]-2-cyclohexen-1-ylidene]-acetic acid ethyl ester] | 0% | 0% | % damage ([2]; 2 DAT, rate 1000 g/ha (B alone)): 0%; % damage ([2]; 8 DAT, rate 1000 g/ha (B alone)): 0% |
| CCCCN1C(=O)c2cc3nn(-c4cc(C(C)(C)CC(C)(C)C)cc(C(C)(C)c5ccccc5)c4O)nc3cc2C1=O [B.1.1.2] | 0% | 0% | – |
| CCCCC(CC)COC(=O)C=Cc1ccc(OC)cc1 (stereo not shown) [B.1.5.1, 2-ethylhexyl 4-methoxycinnamate] | 0% | 0% | – |
| CCN(CC)c1ccc(C(=O)c2ccccc2C(=O)N2CCN(C(=O)c3ccccc3C(=O)c3ccc(N(CC)CC)cc3O)CC2)c(O)c1 [B.1.6.5] | 0% | 0% | – |
| Oc1ccc(C=Cc2cc(O)cc(O)c2)cc1 [B.3.27.1, resveratrol] | – | – | % damage [1, 3]: 10%; % damage [1, 4]: 0% |
| CCCOC(=O)c1cc(O)c(=O)c2c(O)c(O)ccc2c1 [B.1.19.1, 3,4,6-trihydroxy-5-oxo-5H-benzocycloheptene-8-carboxylic acid propyl ester] | 0% | 0% | % damage ([2]; 2 DAT, rate 250 g/ha (B alone)): 0%; % damage ([2]; 8 DAT, rate 250 g/ha (B alone)): 0% |
| CC(C)(C)CC(C)(C)c1cc(Cc2cc(C(C)(C)CC(C)(C)C)cc(-n3nc4ccccc4n3)c2O)c(O)c(-n2nc3ccccc3n2)c1 [B.1.1.1, 2,2-methylenbis-6-(benzotriazol-2-yl)-4-tert-octylphenol] | 0% | 0% | – |
| CNC(=O)c1ccc(Nc2nc(NC)nc(Nc3ccc(/C=C/c4ccc(Nc5nc(NC)nc(Nc6ccc(C(=O)NC)cc6)n5)cc4S(=O)(=O)[O-])c(S(=O)(=O)[O-])c3)n2)cc1.[Na+].[Na+] [B.1.16.1] | 0% | 0% | – |
